From patent US20250388604A1, “Compounds and Their Use as PDE4 Activators” (Mironid Limited, priority 2022, published 2025)

What follows are molecules tested on m-IMCD3 cells (assay: Inhibition of PGE2-stimulated in vitro cyst formation in m-IMCD3 cells). Conditions: 3 μM; mean cyst area, 100% for (DMSO + PGE2) and 0% for DMSO control; 6 days of culture.
Format: cell-based, mouse
Description: HEK 293 and MDCK cells (Public Health England, Cell Culture Collections) were maintained in Dulbecco's Modified Eagle's Medium (DMEM) supplemented with 10% (v/v) fetal bovine serum (FBS) (Seralab), 2 mM L-glutamine and 100 U/mL penicillin streptomycin cocktail (ThermoFisher); termed complete media. Clonal HEK 293 cell lines were maintained in complete media supplemented with 0.6 mg/ml G418 (Enzo Life Sciences). Mouse inner medullary collecting duct (m-IMCD3) cells [American Type Culture Collection (ATCC)] were maintained in media consisting of DMEM/Hams F-12 50/50 Mix (DMEM F12; Corning) supplemented with penicillin streptomycin cocktail (100 U/mL) and FBS (10% v/v) (DMEM F12-10% FBS).
The mouse Inner Medullary Collecting Duct cell line (m-IMCD3) spontaneously forms cystic spheroids in 3D culture with a Type 1 collagen/Matrigel extracellular matrix. This process can be stimulated with agents which raise intracellular cAMP and is used as an in vitro model for the formation of cystic structures in the kidneys of patients with ADPKD.
Rat Collagen I (Fisher Scientific) is prepared on ice by neutralising with 1M NaOH and diluting with a 2× volume of DMEM/F12+10% FBS. This is mixed 1:1.1 with ice cold Matrigel (Corning) for coating plates (coating mix), and 1:0.93 with Matrigel for cell plating (plating mix).
The assay is conducted in the wells of a 96-well plate culture dish using a total volume of 130 μL of collagen/Matrigel/DMEM F12-10% FBS suspension in growth media for each matrix plug per individual well. Initially, 30 μL of collagen/Matrigel/DMEM F12-10% FBS (coating mix) is added into the well of a 96 well plate and the collagen is set to a gel by incubating at 37° C. for at least 15 minutes. A second layer of 100 μL collagen/Matrigel suspension (plating mix) containing m-IMCD3 cells (2.75×10^6 m-IMCD3 cells per 96-well plate) is layered over the coating mix and the collagen/Matrigel/cell mix again set to a gel by incubating at 37° C. Cell cultures are maintained at 37° C. in an atmosphere of 5% CO2, 95% air.
Between 18 and 24 h after plating, test compound(s) as DMSO stock solutions [0.1% (v/v) final DMSO concentration] and PGE2 (100 nM final concentration) in DMEM F12-10% FBS are added in quadruplicate wells per condition. Media, together with the test compound and PGE2 are replenished after 2 or 3 days. After 6 days of culture z stack images of the wells are captured using the Nikon Eclipse Ti2-E microscope. Nikon General Analysis software is used to measure the following parameters in each well: the mean cyst area, the number of cysts, and the total cyst area.
PDE4 long form activators inhibited in vitro cyst formation in m-IMCD3 cells. Data are shown in Table 4 as mean cyst area (%), compared to 100% for (DMSO+PGE2) and 0% for DMSO control.

Row | SMILES | % Cyst area after incubation with 3 μM test compound [%]
1 | CC(C(=O)N1CCc2nc(N3C4CCC3CNC4)sc2C1)C(C)(C)C (single isomer, unassigned) [Example 159, 1-(2-(3,8-diazabicyclo[3.2.1]octan-8-yl)-6,7-dihydrothiazolo[5,4-c]pyridin-5(4H)-yl)-2,3,3-trimethylbutan-1-one] | 0

Same assay, conditions: Mus musculus, mIMCD3, 144 h, 3 μM; mean cyst area, 100% for (DMSO + PGE2) and 0% for DMSO control; 6 days of culture; read-out: % Cyst area after incubation with 3 μM test compound

Row | SMILES | activity at 3 µM [%]
2 | COC(C(=O)N1CCc2nc(N3C4CCC3CNC4)sc2C1)C1(C)CCCC1 (stereo not drawn) [Example 249, 1-(2-(3,8-diazabicyclo[3.2.1]octan-8-yl)-6,7-dihydrothiazolo[5,4-c]pyridin-5(4H)-yl)-2-methoxy-2-(1-methylcyclopentyl)ethan-1-one] | -5
3 | O=C(c1ccccc1C(F)F)N1CCc2nc(N3C4CCC3CNC4)sc2C1 [Example 218, (2-(3,8-diazabicyclo[3.2.1]octan-8-yl)-6,7-dihydrothiazolo[5,4-c]pyridin-5(4H)-yl)(2-(difluoromethyl)phenyl)methanone] | 11
4 | CC1(C)CN(C(=O)c2ccc(F)nc2)Cc2sc(N3C4CCC3CNC4)nc21 [Example 264, (2-(3,8-diazabicyclo[3.2.1]octan-8-yl)-7,7-dimethyl-6,7-dihydrothiazolo[5,4-c]pyridin-5(4H)-yl)(6-fluoropyridin-3-yl)methanone] | -1
5 | O=C(CC1CCCC1)N1CCc2nc(N3CC4CCC3CN4)sc2C1 (stereo not drawn) [Example 278, 1-(2-(2,5-diazabicyclo[2.2.2]octan-2-yl)-6,7-dihydrothiazolo[5,4-c]pyridin-5(4H)-yl)-2-cyclopentylethan-1-one] | 2
6 | O=C(C1CCc2ccccc2O1)N1CCc2nc(N3C4CCC3CNC4)sc2C1 (stereo not drawn) [Example 181, (2-(3,8-diazabicyclo[3.2.1]octan-8-yl)-6,7-dihydrothiazolo[5,4-c]pyridin-5(4H)-yl)(chroman-2-yl)methanone] | 5
7 | COCCOc1ccccc1OCC(=O)N1CCc2nc(N3C4CCC3CNC4)sc2C1 [Example 129, 1-(2-(3,8-diazabicyclo[3.2.1]octan-8-yl)-6,7-dihydrothiazolo[5,4-c]pyridin-5(4H)-yl)-2-(2-(2-methoxyethoxy)phenoxy)ethan-1-one] | 3
8 | O=C(c1cccc(OC(F)F)c1)N1CCc2nc(N3C4CCC3CNC4)sc2C1 [Example 206, (2-(3,8-diazabicyclo[3.2.1]octan-8-yl)-6,7-dihydrothiazolo[5,4-c]pyridin-5(4H)-yl)(3-(difluoromethoxy)phenyl)methanone] | 6
9 | O=C(c1cccc2c1OCCC2)N1CCc2nc(N3C4CCC3CNC4)sc2C1 [Example 217, (2-(3,8-diazabicyclo[3.2.1]octan-8-yl)-6,7-dihydrothiazolo[5,4-c]pyridin-5(4H)-yl)(chroman-8-yl)methanone] | -3
10 | O=C(N[C@H]1CCOc2ccccc21)N1CCc2nc(N3CCNCC3)sc2C1 [Example 296, (S)—N-(chroman-4-yl)-2-(piperazin-1-yl)-6,7-dihydrothiazolo[5,4-c]pyridine-5(4H)-carboxamide] | 33
11 | O=C(c1cccc2c1OCO2)N1CCc2nc(N3C4CCC3CNC4)sc2C1 [Example 234, (2-(3,8-diazabicyclo[3.2.1]octan-8-yl)-6,7-dihydrothiazolo[5,4-c]pyridin-5(4H)-yl)(benzo[d][1,3]dioxol-4-yl)methanone] | 1

Same assay, conditions: Mus musculus, mIMCD3, 144 h, 10 μM; mean cyst area, 100% for (DMSO + PGE2) and 0% for DMSO control; 6 days of culture; read-out: % Cyst area after incubation with 10 μM test compound

Row | SMILES | activity at 10 µM [%]
12 | O=C(C1CCCO1)N1CCc2nc(N3C4CCC3CNC4)sc2C1 (stereo not drawn) [Example 133, (2-(3,8-diazabicyclo[3.2.1]octan-8-yl)-6,7-dihydrothiazolo[5,4-c]pyridin-5(4H)-yl)(tetrahydrofuran-2-yl)methanone] | 19
13 | CN1CC2CCC(C1)N2c1nc2c(s1)CN(C(=O)CC1CCCC1)CC2(C)C [Example 102, 2-cyclopentyl-1-(7,7-dimethyl-2-(3-methyl-3,8-diazabicyclo[3.2.1]octan-8-yl)-6,7-dihydrothiazolo[5,4-c]pyridin-5(4H)-yl)ethan-1-one] | -3
14 | O=C(COc1ccc(F)cc1)N1CCc2nc(N3CCNCC3)sc2C1 [Example 110, 2-(4-fluorophenoxy)-1-(2-(piperazin-1-yl)-6,7-dihydrothiazolo[5,4-c]pyridin-5(4H)-yl)ethan-1-one] | -5
15 | O=C(CC1CCC2(CC1)COC2)N1CCc2nc(N3C4CCC3CNC4)sc2C1 [Example 155, 1-(2-(3,8-diazabicyclo[3.2.1]octan-8-yl)-6,7-dihydrothiazolo[5,4-c]pyridin-5(4H)-yl)-2-(2-oxaspiro[3.5]nonan-7-yl)ethan-1-one] | -3
16 | CC(C)(C)C(=O)N1CCc2nc(N3C4CCC3CNC4)sc2C1 [Example 65, 1-(2-(3,8-diazabicyclo[3.2.1]octan-8-yl)-6,7-dihydrothiazolo[5,4-c]pyridin-5(4H)-yl)-2,2-dimethylpropan-1-one] | -2
17 | O=C(Cc1cnccn1)N1CCc2nc(N3C4CCC3CNC4)sc2C1 [Example 136, 1-(2-(3,8-diazabicyclo[3.2.1]octan-8-yl)-6,7-dihydrothiazolo[5,4-c]pyridin-5(4H)-yl)-2-(pyrazin-2-yl)ethan-1-one] | 18
18 | CN1CC2CCC(C1)N2c1nc2c(s1)CN(C(=O)NC1CCCC1)C2 [Example 82, N-cyclopentyl-2-(3-methyl-3,8-diazabicyclo[3.2.1]octan-8-yl)-4,6-dihydro-5H-pyrrolo[3,4-d]thiazole-5-carboxamide] | 2
19 | O=C(N1CCc2nc(N3C4CCC3CNC4)sc2C1)C(F)(F)C1CCCC1 [Example 24, 1-(2-(3,8-diazabicyclo[3.2.1]octan-8-yl)-6,7-dihydrothiazolo[5,4-c]pyridin-5(4H)-yl)-2-cyclopentyl-2,2-difluoroethan-1-one] | 0
20 | O=S(=O)(CC1CCCC1)N1CCc2nc(N3C4CCC3CNC4)sc2C1 [Example 107, 2-(3,8-diazabicyclo[3.2.1]octan-8-yl)-5-((cyclopentylmethyl)sulfonyl)-4,5,6,7-tetrahydrothiazolo[5,4-c]pyridine] | -16
21 | O=C(CCc1ccccc1)N1CCc2nc(N3C4CCC3CNC4)sc2C1 [Example 5, 1-(2-(3,8-diazabicyclo[3.2.1]octan-8-yl)-6,7-dihydrothiazolo[5,4-c]pyridin-5(4H)-yl)-3-phenylpropan-1-one] | -5
22 | O=C(N1CCCC1)N1CCc2nc(N3C4CCC3CNC4)sc2C1 [Example 60, (2-(3,8-diazabicyclo[3.2.1]octan-8-yl)-6,7-dihydrothiazolo[5,4-c]pyridin-5(4H)-yl)(pyrrolidin-1-yl)methanone] | 2
23 | COC(C(=O)N1CCc2nc(N3C4CCC3CNC4)sc2C1)c1ccc(F)cc1 (stereo not drawn) [Example 131, 1-(2-(3,8-diazabicyclo[3.2.1]octan-8-yl)-6,7-dihydrothiazolo[5,4-c]pyridin-5(4H)-yl)-2-(4-fluorophenyl)-2-methoxyethan-1-one] | -9
24 | O=C(Cc1ccc(F)cc1)N1CCc2nc(N3C4CCC3CNC4)sc2C1 [Example 25, 1-(2-(3,8-diazabicyclo[3.2.1]octan-8-yl)-6,7-dihydrothiazolo[5,4-c]pyridin-5(4H)-yl)-2-(4-fluorophenyl)ethan-1-one] | 6
25 | O=C(COc1ccnc(F)c1)N1CCc2nc(N3C4CCC3CNC4)sc2C1 [Example 73, 1-(2-(3,8-diazabicyclo[3.2.1]octan-8-yl)-6,7-dihydrothiazolo[5,4-c]pyridin-5(4H)-yl)-2-((2-fluoropyridin-4-yl)oxy)ethan-1-one] | 3
26 | CN1CC2CCC(C1)N2c1nc2c(s1)CN(C(=O)CC1CCCC1)C2 [Example 83, 2-cyclopentyl-1-(2-(3-methyl-3,8-diazabicyclo[3.2.1]octan-8-yl)-4,6-dihydro-5H-pyrrolo[3,4-d]thiazol-5-yl)ethan-1-one] | 4
27 | O=C(CC1CCCC1)N1CCc2nc(N3CCNC[C@H]3CO)sc2C1 [Example 284, (S)-2-cyclopentyl-1-(2-(2-(hydroxymethyl)piperazin-1-yl)-6,7-dihydrothiazolo[5,4-c]pyridin-5(4H)-yl)ethan-1-one] | 19
